Data reported in US20060135483A1, “Oxygen/nitrogen heterocycle inhibitors of tyrosine phosphatases” (priority 2004, published 2006).

The compounds below were run against T1, PTP-1B (Homo sapiens, UniProt P18031) (assay: pNPP assay for tyrosine phosphatase inhibitory activity). Conditions: Table 1; pNPP substrate 10 mM, 30° C., 10 minutes, absorbance at 405 nm.
T1 construct: PTP-1B (purified, 1 mg/mL) as a 1:250 dilution
T1 sequence (P18031 1-321 limits assumed): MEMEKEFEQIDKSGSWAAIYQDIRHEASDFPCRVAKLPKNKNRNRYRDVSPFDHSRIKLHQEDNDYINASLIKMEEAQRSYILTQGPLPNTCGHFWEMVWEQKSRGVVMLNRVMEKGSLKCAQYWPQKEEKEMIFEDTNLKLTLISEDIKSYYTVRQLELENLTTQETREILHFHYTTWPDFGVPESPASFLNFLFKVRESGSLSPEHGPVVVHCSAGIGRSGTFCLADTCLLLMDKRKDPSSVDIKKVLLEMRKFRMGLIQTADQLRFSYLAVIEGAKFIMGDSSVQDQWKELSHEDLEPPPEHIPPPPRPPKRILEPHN
Type: biochemical
Method: The compounds provided herein are evaluated for biological activity as inhibitors of PTP-1B using, for example, a pNPP assay. Such an assay can be used to screen compounds for tyrosine phosphatase inhibitory activity as shown in Example 39.
A 5× stock of pNPP (p-nitrophenol phosphate) substrate is prepared as 50 mM pNPP in assay buffer. Various tyrosine phosphatase solutions can be prepared as follows: • PTP-1B (purified, 1 mg/mL) as a 1:250 dilution (to a final concentration of 4:g/mL); • TC-PTP (NEB, 1000 units in 100:L) as a 1:50 dilution (to a final concentration of 2 U/10:L (4:g/mL)); • CD45 (Calbiochem, 20:g, 400 units in 100: L) as a 1 :50 dilution (to a final concentration of 0.8 U/10:L (4:g/mL)); • LAR (NEB, 1000 units in 200:L) as a 1:75 dilution (to a final concentration of 0.7 U/10:L (4:g/mL)); and • PTP-β (UBI, #14-350, 10,000 units, 40:g/571:L) as a 1:17.5 dilution (to a final concentration of 10 U/10:L (4:g/mL));
The compound to be tested is prepared as 1:16.7 and 1:50 dilutions from stock in a total volume of 1 00:M DMSO to give final concentrations of 626 and 200:M. The reaction mixtures are prepared in a 96-well microtiter plate (on ice) as 55:L assay buffer, 5:L of the diluted compound (to a final concentration of 31.3 and 10:M), 20:L of the pNPP substrate solution (to a final concentration of 10 mM) and 20:L PTPase in assay buffer. The reactants are mixed well, the plate placed in a water bath at 30° C. and incubated for 10 minutes. The reaction is then terminated by adding 1 OO:L of 2M K2CO3 per well, and the absorbance is measured at 405 nm by conventional means.
Unless otherwise indicated, this assay was used to determine activity for the selected compounds whose activity is recorded in Table 1 and Table 2.

| IC50 | SMILES |
| --- | --- |
| 100 to 500 nM | O=C(O)c1ccccc1-c1ccc(-c2cnc(N(Cc3ccc(C(F)(F)P(=O)(O)O)c(Br)c3)c3ccc(Cl)c(Cl)c3)o2)cc1 [Example 17, 4′-{2-[[3-Bromo-4-(difluoro-phosphono-methyl)-benzyl]-(3,4-dichloro-phenyl)-amino]-oxazol-5-yl}-biphenyl-2-carboxylic acid] |
| 10000 to 100000 nM | CS(=O)(=O)c1ccc(-c2cnc(N(Cc3ccc(C(F)(F)C(=O)O)cc3)c3ccc(Cl)c(Cl)c3)o2)cc1 [[4-({(3,4-Dichloro-phenyl)-[5-(4-methanesulfonyl-phenyl)-oxazol-2-yl]-amino}-methyl)-phenyl]-difluoro-acetic acid] |
| 100 to 500 nM | O=C(O)c1ccccc1-c1cccc(-c2cnc(N(Cc3ccc(C(F)(F)P(=O)(O)O)c(Br)c3)c3ccc(Cl)c(Cl)c3)o2)c1 [Example 20, 3′-{2-[[3-Bromo-4-(difluoro-phosphono-methyl)-benzyl]-(3,4-dichloro-phenyl)-amino]-oxazol-5-yl}-biphenyl-2-carboxylic acid] |
| 1000 to 10000 nM | COC(=O)c1ccc(Oc2ccc(-c3cnc(N(Cc4ccc(C(F)(F)P(=O)(O)O)c(Br)c4)c4ccc(Cl)c(Cl)c4)o3)cc2)cc1 [Example 10, 4-(4-{2-[[3-Bromo-4-(difluoro-phosphono-methyl)-benzyl]-(3,4-dichloro-phenyl)-amino]-oxazol-5-yl}-phenoxy)-benzoic acid methyl ester] |
| 500 to 1000 nM | COC(=O)c1ccc(-c2cnc(N(Cc3ccc(C(F)(F)P(=O)(O)O)c(Br)c3)c3ccc(Cl)c(Cl)c3)o2)cc1 [Example 2, 4-{2-[[3-Bromo-4-(difluoro-phosphono-methyl)-benzyl]-(3,4-dichloro-phenyl)-amino]-oxazol-5-yl}-benzoic acid methyl ester] |
| 1000 to 10000 nM | COC(=O)c1ccc(-c2cnc(N(Cc3ccc(C(F)(F)P(=O)(O)O)c(Br)c3)c3ccccc3)o2)cc1 [Example 4, 4-(2-{[3-Bromo-4-(difluoro-phosphono-methyl)-benzyl]-phenyl-amino}-oxazol-5-yl)-benzoic acid methyl ester] |
| 1000 to 10000 nM | O=C(O)c1cccc(Oc2cccc(-c3nnc(N(Cc4ccc(C(F)(F)P(=O)(O)O)cc4)c4ccc(Cl)c(Cl)c4)o3)c2)c1 [Example 23, 3-[3-(5-{(3,4-Dichloro-phenyl)-[4-(difluoro-phosphono-methyl)-benzyl]-amino}-[1,3,4]oxadiazol-2-yl)-phenoxy]-benzoic acid] |
| 100 to 500 nM | O=C(O)c1ccccc1Oc1cccc(-c2cnc(N(Cc3ccc(C(F)(F)P(=O)(O)O)c(Br)c3)c3ccc(Cl)c(Cl)c3)o2)c1 [Example 18, 2-(3-{2-[[3-Bromo-4-(difluoro-phosphono-methyl)-benzyl]-(3,4-dichloro-phenyl)-amino]-oxazol-5-yl}-phenoxy)-benzoic acid] |
| 100 to 500 nM | O=C(O)c1ccc(-c2cnc(N(Cc3ccc(C(F)(F)P(=O)(O)O)c(Br)c3)c3ccccc3)o2)cc1 [Example 5, 4-(2-{[3-Bromo-4-(difluoro-phosphono-methyl)-benzyl]-phenyl-amino}-oxazol-5-yl)-benzoic acid] |
| 1000 to 10000 nM | O=P(O)(O)C(F)(F)c1ccc(CN(c2ccc(Cl)c(Cl)c2)c2ncc(-c3ccccc3)o2)cc1Br [Example 1, [(2-Bromo-4-{[(3,4-dichloro-phenyl)-(5-phenyl-oxazol-2-yl)-amino]-methyl}-phenyl)-difluoro-methyl]-phosphonic acid] |
| 10000 to 100000 nM | CS(=O)(=O)c1ccc(-c2cnc(N(Cc3ccc(OCC(=O)O)c(Br)c3)c3ccc(Cl)c(Cl)c3)o2)cc1 [[2-Bromo-4-({(3,4-dichloro-phenyl)-[5-(4-methanesulfonyl-phenyl)-oxazol-2-yl]-amino}-methyl)-phenoxy]-acetic acid] |
| < 100 nM | O=C(O)c1ccc(-c2cnc(N(Cc3ccc(C(F)(F)P(=O)(O)O)c(Br)c3)c3ccc(Cl)c(Cl)c3)o2)cc1 [Example 3, 4-{2-[[3-Bromo-4-(difluoro-phosphono-methyl)-benzyl]-(3,4-dichloro-phenyl)-amino]-oxazol-5-yl}-benzoic acid] |

| SMILES | IC50 |
| --- | --- |
| CCOP(=O)(OCC)C(F)(F)c1ccc(CN(c2ccc(Cl)c(Cl)c2)c2ncc(-c3ccc(Oc4ccc(C(=O)OC)cc4)cc3)o2)cc1Br [Example 7, 4-(4-{2-[{3-Bromo-4-[(diethoxy-phosphoryl)-difluoro-methyl]-benzyl}-(3,4-dichloro-phenyl)-amino]-oxazol-5-yl}-phenoxy)-benzoic acid methyl ester] | 10000 to 100000 nM |

Same assay, conditions: Table 2; pNPP substrate 10 mM, 30° C., 10 minutes, absorbance at 405 nm

| IC50 | SMILES |
| --- | --- |
| 100 to 500 nM | COc1cccc(CN(Cc2ccc(C(F)(F)P(=O)(O)O)c(Br)c2)c2ncc(-c3ccc(S(C)(=O)=O)cc3)o2)c1 [[(2-Bromo-4-{[[5-(4-methanesulfonyl-phenyl)-oxazol-2-yl]-(3-methoxy-benzyl)-amino]-methyl}-phenyl)-difluoro-methyl]-phosphonic acid] |
| 100 to 500 nM | CCOC(=O)C(C)NP(=O)(O)C(F)(F)c1ccc(CN(c2ccc(Cl)c(Cl)c2)c2ncc(-c3ccc(S(C)(=O)=O)cc3)o2)cc1Br [Example 34, {[2-Bromo-4-({(3,4-dichloro-phenyl)-[5-(4-methanesulfonyl-phenyl)-oxazol-2-yl]-amino}-methyl)-phenyl]-difluoro-methyl}-phosphonic acid mono-(L-alanylethyl ester) amidate] |
| < 100 nM | CS(=O)(=O)c1ccc(-c2cnc(N(Cc3ccc(C(F)(F)P(=O)(O)O)c(Br)c3)c3ccc(F)cc3)o2)cc1 [Example 32, {[2-Bromo-4-({(4-fluoro-phenyl)-[5-(4-methanesulfonyl-phenyl)-oxazol-2-yl]-amino}-methyl)-phenyl]-difluoro-methyl}-phosphonic acid] |
| 1000 to 10000 nM | CCCCCCCCCCCCCCCCOCCCOP(=O)(O)C(F)(F)c1ccc(CN(c2ccc(Cl)c(Cl)c2)c2ncc(-c3ccc(S(C)(=O)=O)cc3)o2)cc1Br [{[2-Bromo-4-({(3,4-dichloro-phenyl)-[5-(4-methanesulfonyl-phenyl)-oxazol-2-yl]-amino}-methyl)-phenyl]-difluoro-methyl}-phosphonic acid mono-(3-hexadecyloxy-propyl) ester] |
| 100 to 500 nM | COCCCN(Cc1ccc(C(F)(F)P(=O)(O)O)c(Br)c1)c1ncc(-c2ccc(S(C)(=O)=O)cc2)o1 [[(2-Bromo-4-{[[5-(4-methanesulfonyl-phenyl)-oxazol-2-yl]-(3-methoxy-propyl)-amino]-methyl}-phenyl)-difluoro-methyl]-phosphonic acid] |
| 100 to 500 nM | O=C(O)c1ccccc1-c1ccc(-c2cnc(N(Cc3ccc(C(F)(F)P(=O)(O)O)c(Cl)c3)c3ccc(Cl)cc3)o2)cc1 [Example 30, 4′-{2-[[3-Chloro-4-(difluoro-phosphono-methyl)-benzyl]-(4-chlorophenyl)-amino]-oxazol-5-yl}-biphenyl-2-carboxylic acid] |
| 100 to 500 nM | CS(=O)(=O)c1ccc(-c2cnc(N(Cc3ccc(C(F)(F)P(=O)(O)O)c(Cl)c3)c3ccc(F)cc3)o2)cc1 [{[2-Chloro-4-({(4-fluoro-phenyl)-[5-(4-methanesulfonyl-phenyl)-oxazol-2-yl]-amino}-methyl)-phenyl]-difluoro-methyl}-phosphonic acid] |
| 100 to 500 nM | O=C(O)c1ccccc1-c1ccc(-c2cnc(N(Cc3ccc(C(F)(F)P(=O)(O)O)c(Br)c3)c3ccccc3)o2)cc1 [Example 27, 4′-{2-[[3-Bromo-4-(difluoro-phosphono-methyl)-benzyl]-phenyl-amino]-oxazol-5-yl}-biphenyl-2-carboxylic acid] |
| 10000 to 100000 nM | CC(C)(C)C(=O)OCOP(=O)(OCOC(=O)C(C)(C)C)C(F)(F)c1ccc(CN(c2ccc(F)cc2)c2ncc(-c3ccc(S(C)(=O)=O)cc3)o2)cc1Br [Example 35, 2,2-Dimethyl-propionic acid {[2-bromo-4-({(4-fluoro-phenyl)-[5-(4-methanesulfonylphenyl)-oxazol-2-yl]-amino}-methyl)-phenyl]-difluoro-methyl}-(2,2-dimethyl-propionyloxymethoxy)-phosphinoyloxymethyl ester] |
| 100 to 500 nM | CS(=O)(=O)c1ccc(-c2cnc(N(Cc3ccc(C(F)(F)P(=O)(O)O)c(Cl)c3)c3ccccc3)o2)cc1 [{[2-Chloro-4-({(5-(4-methanesulfonyl-phenyl)-oxazol-2-yl]-phenyl-amino}-methyl)-phenyl]-difluoro-methyl}-phosphonic acid] |
